This experiment deals with MCF7 multi-cell spheroids with HUVEC/MSC, viability. As to the kind of experiment: Anticancer human tumor MCF7 cell line growth inhibition [IpAb].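 On all read-outs here: spheroids exposed to agents for seven days before readout.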 The following applies: for viability, T/C: stronger effect = lower value. The essentials: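 Multi-cell spheroids of 60% tumour cells, 25% HUVEC and 15% MSC in ultra-low-attachment U-bottom wells, treated with agents combined with ipatasertib or abemaciclib. Half-log ranges top out near clinical Cmax, or 10 microM when Cmax is unknown.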

The term IC50 denotes the concentration at which inhibition is half-maximal. The term viability, T/C denotes the result in the treated group divided by that in the control group, in per cent.

Values joined by “and” are separate entries in the source; they are usually repeats but may differ in a detail not shown here. Equal entries are not always repeated.

Take `Cn1ncnc1[C@H]1c2n[nH]c(=O)c3cc(F)cc(c23)N[C@@H]1c1ccc(F)cc1` + CCN1CCN(Cc2ccc(Nc3ncc(F)c(-c4cc(F)c5nc(C)n(C(C)C)c5c4)n3)nc2)CC1: the IC50 is over 0.1 µM (curve of first compound, second compound 0.01 µM); over 0.1 µM (curve of first compound, second compound 0.0316 µM); over 0.1 µM (curve of first compound, second compound 0.1 µM); over 0.1 µM (curve of first compound, second compound 0.316 µM); over 0.1 µM (curve of first compound, second compound 1 µM). Also, the viability, T/C (second compound 0.01 µM, first compound 0.000316 µM) is 95.3%; the viability, T/C (second compound 0.01 µM, first compound 0.001 µM) is 102%; the viability, T/C (second compound 0.01 µM, first compound 0.00316 µM) was 115%; the viability, T/C (second compound 0.01 µM, first compound 0.01 µM) is 98.6%; the viability, T/C (second compound 0.01 µM, first compound 0.0316 µM) is 106%; the viability, T/C (second compound 0.01 µM, first compound 0.1 µM) was 92.5%. Also, the viability, T/C (second compound 0.0316 µM, first compound 0.000316 µM) was 98.6%; the viability, T/C (second compound 0.0316 µM, first compound 0.001 µM) was 107%; the viability, T/C (second compound 0.0316 µM, first compound 0.00316 µM) is 83.8%; the viability, T/C (second compound 0.0316 µM, first compound 0.01 µM) was 89.4%; the viability, T/C (second compound 0.0316 µM, first compound 0.0316 µM) is 100%; the viability, T/C (second compound 0.0316 µM, first compound 0.1 µM) was 88.1%. The viability, T/C (second compound 0.1 µM, first compound 0.000316 µM) is 114%; the viability, T/C (second compound 0.1 µM, first compound 0.001 µM) was 103%; the viability, T/C (second compound 0.1 µM, first compound 0.00316 µM) was 107%; the viability, T/C (second compound 0.1 µM, first compound 0.01 µM) is 87.5%; the viability, T/C (second compound 0.1 µM, first compound 0.0316 µM) is 85.1%; the viability, T/C (second compound 0.1 µM, first compound 0.1 µM) was 85.3%. In addition, the viability, T/C (second compound 0.316 µM, first compound 0.000316 µM) is 108%; the viability, T/C (second compound 0.316 µM, first compound 0.001 µM) is 106%; the viability, T/C (second compound 0.316 µM, first compound 0.00316 µM) was 93.4%; the viability, T/C (second compound 0.316 µM, first compound 0.01 µM) is 97.4%; the viability, T/C (second compound 0.316 µM, first compound 0.0316 µM) is 90.2%; the viability, T/C (second compound 0.316 µM, first compound 0.1 µM) is 88.7%. Also, the viability, T/C is, setting by setting: (second compound 1 µM, first compound 0.000316 µM) 100%; (second compound 1 µM, first compound 0.001 µM) 105%; (second compound 1 µM, first compound 0.00316 µM) 84.4%; (second compound 1 µM, first compound 0.01 µM) 100%; (second compound 1 µM, first compound 0.0316 µM) 85.3%; (second compound 1 µM, first compound 0.1 µM) 85.7%.
Consider `COc1c(OCCCN2CCOCC2)ccc2c3n(c(=NC(=O)c4cnc(N)nc4)nc12)CCN3`, for which the viability, T/C was 89.3% and 87.5% (compound 0.00316 µM); 80.2% and 84.9% (compound 0.01 µM); 64.7% and 59.9% (compound 0.0316 µM); 32% and 36.9% (compound 0.1 µM); 14% and 10.5% (compound 0.316 µM); 14.2% and 13.4% (compound 1 µM). For the same molecule, the IC50 (curve of compound) came out at 0.0519 µM.

The values above are taken from PubChem BioAssay AID2060329 (Molecular Pharmacology Branch, DTP, NCI, 2025).
